Values after ≈ are worked out from the molar mass of the structure shown.
Tests used:
[1] = system: E. coli induced oxidative burst in human whole blood; experiment: E. coli induced oxidative burst in human whole blood (Phagoburst kit, Example 26); assay type: cell-based; details: read-out: IC50 for the inhibition of the E. coli induced oxidative burst in human whole blood
Experimental: The whole blood assay is carried out according to the instructions from the Phagoburst-Kit (Orpegen Pharma). 50 μg/ml of Refludan is used to inhibit blood clotting (Mollnes et al. 2002 Blood 100: 1869). Freshly drawn, anticoagulated blood is cooled over ice and 100 μl thereof are added to 10 μl of the compound solution containing at most 1.3% of DMSO. The mixture is incubated for 10 minutes at 37° C. After this the samples are put on ice again and 20 μl of opsonisated E. coli suspension (10^9 cells/ml) is added followed by 10 minutes of incubation at 37° C. 20 μl of the substrate are added to the cells followed by another 10 minutes of incubation at 37° C. After this 2 ml of lysis buffer are added to the cells, which are then kept at room temperature for 20 minutes. The cellular components are separated by centrifugation at 250×g for 5 minutes. The supernatant is discarded and 3 ml of washing solution are added to the pellet. The cells are centrifuged again and the resulting pellet is taken up in 200 μl DNA staining solution. The neutrophiles are analysed by means of a FACS device (FACSCalibur, Becton-Dickinson) according to the parameters given in the manual. […] It can be seen that, due to the determined activity, the compounds of this invention are suited to be used as therapeutics in human.

[2] = biological target: T1, human C5a receptor (CD88) (Homo sapiens, UniProt P21730); experiment: Agonism in enzyme release assay without C5a stimulus (Example 32); assay type: cell-based; details: concentration applied 7.1 μM
T1 construct: expressed in transfected cells; host or cells: rat basophilic leukemia (RBL) cells, stably transfected
T1 sequence (P21730 1-350): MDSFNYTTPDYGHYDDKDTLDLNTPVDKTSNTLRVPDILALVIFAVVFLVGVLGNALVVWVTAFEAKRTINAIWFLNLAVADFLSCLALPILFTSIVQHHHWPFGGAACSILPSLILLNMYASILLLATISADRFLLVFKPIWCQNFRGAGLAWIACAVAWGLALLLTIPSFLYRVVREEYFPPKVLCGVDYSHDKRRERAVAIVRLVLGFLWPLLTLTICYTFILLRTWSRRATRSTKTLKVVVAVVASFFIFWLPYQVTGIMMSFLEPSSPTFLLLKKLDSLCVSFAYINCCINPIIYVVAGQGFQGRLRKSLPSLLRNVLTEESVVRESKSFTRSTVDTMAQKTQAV
Experimental: The assay has been described by Köhl (Köhl 1997 The Anaphylatoxins. In: Dodds, A. W., Sim, R. B. (Eds.), Complement: A Practical Approach. Oxford: 135). Basophile leukemia cells from rats (RBL), which express the human C5a receptor (CD88), are cultivated in DMEM with 10% fetal calf serum, 100 U/ml penicillin, 100 μg/ml streptomycin and 2 mM glutamin (all constituents are from Biochrome, Berlin) at 37° C. and with 10% CO2 until a confluent layer is obtained. All following details refer to a tissue culture flask with 75 cm^2 surface. The used up medium is removed. The cells are washed with 10 ml PBS (Dulbecco's PBS, Biochrome) and then covered with 3 ml cell dissociation solution (CDS, Sigma). The cells are incubated for 1 minute at room temperature. Then the CDS is removed and the cells are incubated for further 10-15 minutes at 37° C. to detach the cells completely from the flask. 20 μl solution of the compound to be testet are used in the assay. The assay solution must not contain more than 2.8% DMSO. The dilution series are prepared in ⅓ or ½ steps. To the 20 μl of the compound solutions 75 μl RBL cells are added which are prepared as follows: After the detachment of the cells from the flask surface they are taken up with 10 ml HAG-CM (20 mM HEPES; 125 mM NaCl, 5 mM KCl, 1 mM CaCl2, 1 mM MgCl2, 0.5 mM glucose, 0.25% BSA. HEPES preparation: 2.3 g/l HEPES salt+2.66 g/l HEPES acid) thermostated at 37° C. The cells are counted and centrifuged (200 g, 10 min). The cell pellet is taken up with pre-heated HAG-CM, and the cell density is adjusted to 2×10^6 Zellen/ml. The cells are incubated for 5 minutes at 37° C. 2.7 μl of a cytochalasin B solution (1000 μg/ml in DMSO, Sigma) are added per ml cell suspension. The Zellen are incubated for another 3 min at 37° C. Then, 75 μl of the cell suspension are added to the 20 μl solution containing the compounds to be tested. Thus a volume of […] per well is obtained. The cells are again incubated for 10 minutes at 37° C. Then 10 μl hrC5a (10.5 nM in HAG-CM, Sigma) are added per well, which is followed by 5 minutes incubation at 37° C. After this the plates are put on ice and centrifuged for 3 minutes at 1200×g and 4° C. 75 μl of the supernatant are added to 100 μl substrate solution (2.7 mg/ml p-nitrophenyl-N-acetyl-b-D-glucosaminide (Sigma) in 42.5 mM sodium acetate, pH 4.5). The plate is incubated for 1 hour at 37° C. Per well 75 μl 0.4 M glycine (pH 10.4) are added. After this the plate can be measured at a wave length of 405 nm. The IC50 value is determined by solving the four parameter equation y=((A−D)/(1+(x/C)^B))+D.
The only difference is the fact that 30 μl of the substance to be tested are mixed with 75 μl of the cell suspension described in example 28. The cells are not pre-incubated and no C5a is added to stimulate enzyme release.

[3] = Solubility in aqueous HEPES buffer by HPLC (Example 33); assay type: physicochemical; details: kinetic from dmso stock
Experimental: To determine the solubility the compound to be measured is dissolved (e.g, […] of a 5 mM solution in DMSO) in organic solvent (e.g. 198 μl DMSO) as well as in aqueous buffer solution (e.g. 198 μl HEPES buffer). Both solutions are analyzed via analytical HPLC and the areas under the peaks are compared. The value for the organic solution is taken as 100%.

Structure (SMILES) | IC50 [1] [nM] | Agonism (% of the maximum enzyme release induced by C5a) [2] [%] | solubility [3] [µM]
CCc1ccc(N(C(=O)Nc2c(CC)c(N)cc(Cl)c2CC)C(C)c2ccc3c(c2)ncn3C)cc1 (stereo not drawn) [compound 122, 3-(3-amino-5-chloro-2,6-diethyl-phenyl)-1-(4-ethyl-phenyl)-1-[1-(1-methyl-1H-benzoimidazol-5-yl)-ethyl]-urea] | 3500 | 0.00 | 29 (≈ 14.6 µg/mL)
CCc1c(N)cc(Cl)c(CC)c1NC(=O)N(Cc1ccc(Cl)cc1)c1ccc(CC(F)(F)F)cc1 [compound 103, 3-(3-amino-5-chloro-2,6-diethyl-phenyl)-1-(4-chloro-benzyl)-1-[4-(2,2,2-trifluoro-ethyl)-phenyl]-urea] | 800 | 0.00 | 7 (≈ 3.67 µg/mL)
CCc1ccc(N(Cc2ccc(C)nc2)C(=O)Nc2c(CC)c(N)cc(Cl)c2CC)cc1 [compound 106, 3-(3-amino-5-chloro-2,6-diethyl-phenyl)-1-(4-ethyl-phenyl)-1-(6-methyl-pyridin-3-ylmethyl)-urea] | 1600 | 0.00 | 83 (≈ 37.4 µg/mL)

From patent publication US8071810B2, “C5a receptor antagonists” (Jerini AG, priority 2005, dated 2011)
